doi:10.1101/2021.08.17.455204v3 (biorxiv, 2022)

Experiments:
[1] = target: Peptidase, Angiotensin Converting Enzyme (Oryctolagus cuniculus, UniProt P12822); assay: biochemical; conditions: read-out: % inhibition
Progesterone PR-B = Progesterone PR-B (Homo sapiens, UniProt P06401); assay: biochemical; conditions: read-out: % inhibition
Potassium Channel hERG = Potassium Channel hERG (Homo sapiens, UniProt Q12809); assay: in vitro; conditions: crude membrane preparations
Muscarinic M3 = Muscarinic M3 (Homo sapiens, UniProt P20309); assay: biochemical; conditions: read-out: % inhibition
Adrenergic α2A = Adrenergic α2A (Homo sapiens, UniProt P08913); assay: biochemical; conditions: read-out: % inhibition
Adrenergic α1A = Adrenergic α1A (Rattus norvegicus, UniProt P43140); assay: biochemical; conditions: read-out: % inhibition
Histamine H1 = Histamine H1 (Homo sapiens, UniProt P35367); assay: biochemical; conditions: read-out: % inhibition
Dopamine D3 = Dopamine D3 (Homo sapiens, UniProt P35462); assay: biochemical; conditions: read-out: % inhibition
Adrenergic α1B = Adrenergic α1B (Rattus norvegicus, UniProt P15823); assay: biochemical; conditions: read-out: % inhibition
Muscarinic M2 = Muscarinic M2 (Homo sapiens, UniProt P08172); assay: biochemical; conditions: read-out: % inhibition
Angiotensin AT2 = Angiotensin AT2 (Homo sapiens, UniProt P50052); assay: biochemical; conditions: read-out: % inhibition
Sigma σ1 = Sigma σ1 (Homo sapiens, UniProt Q99720); assay: biochemical; conditions: read-out: % inhibition
Adenosine A1 = Adenosine A1 (Homo sapiens, UniProt P30542); assay: biochemical; conditions: read-out: % inhibition
Adenosine A2A = Adenosine A2A (Homo sapiens, UniProt P29274); assay: biochemical; conditions: read-out: % inhibition
[2] = target: Nicotinic Acetylcholine α3β4 (Homo sapiens, UniProt P30926+P32297); assay: biochemical; conditions: read-out: % inhibition
Adrenergic β2 = Adrenergic β2 (Homo sapiens, UniProt P07550); assay: biochemical; conditions: read-out: % inhibition
Dopamine D2s = Dopamine D2s (Homo sapiens, UniProt P14416); assay: biochemical; conditions: read-out: % inhibition
Opiate μ (OP3, MOP) = Opiate μ (OP3, MOP) (Homo sapiens, UniProt P35372); assay: biochemical; conditions: read-out: % inhibition
Sigma σ2 = Sigma σ2 (Rattus norvegicus, UniProt Q5U3Y7); assay: biochemical; conditions: read-out: % inhibition
Adrenergic β1 = Adrenergic β1 (Homo sapiens, UniProt P08588); assay: biochemical; conditions: read-out: % inhibition
[3] = target: Transporter, Norepinephrine (NET) (Homo sapiens, UniProt P23975); assay: biochemical; conditions: read-out: % inhibition
Dopamine D1 = Dopamine D1 (Homo sapiens, UniProt P21728); assay: biochemical; conditions: read-out: % inhibition
Angiotensin AT1 = Angiotensin AT1 (Homo sapiens, UniProt P30556); assay: biochemical; conditions: read-out: % inhibition
Muscarinic M5 = Muscarinic M5 (Homo sapiens, UniProt P08912); assay: biochemical; conditions: read-out: % inhibition
Estrogen ERβ = Estrogen ERβ (Homo sapiens, UniProt Q92731); assay: biochemical; conditions: read-out: % inhibition
Estrogen ERα = Estrogen ERα (Homo sapiens, UniProt P03372); assay: biochemical; conditions: read-out: % inhibition
[4] = target: SERCA2a (guinea-pig cardiac SR microsomes) (Cavia porcellus, UniProt A0A286XD73); assay: […]-ATP hydrolysis; type: biochemical; conditions: 37 °C; normal guinea-pig heart SR microsomes; activation; PLN present
Aldosterone = Aldosterone (Rattus norvegicus, UniProt P22199); assay: biochemical; conditions: read-out: % inhibition
[5] = target: Na+/K+ ATPase alpha1 isoform from dog kidney (Canis lupus, UniProt P50997); assay: […]-ATP hydrolysis, ouabain-sensitive ATPase inhibition; type: biochemical
Glucocorticoid = Glucocorticoid (Homo sapiens, UniProt P04150); assay: biochemical; conditions: read-out: % inhibition
Androgen (Testosterone) = Androgen (Testosterone) (Homo sapiens, UniProt P10275); assay: biochemical; conditions: read-out: % inhibition
Insulin = Insulin (Rattus norvegicus, UniProt P15127); assay: biochemical; conditions: read-out: % inhibition
Monoamine Oxidase MAO-B = Monoamine Oxidase MAO-B (Homo sapiens, UniProt P27338); assay: biochemical; conditions: read-out: % inhibition
HMG-CoA Reductase = HMG-CoA Reductase (Homo sapiens, UniProt P04035); assay: biochemical; conditions: read-out: % inhibition
Peptidase, Renin = Peptidase, Renin (Homo sapiens, UniProt P00797); assay: biochemical; conditions: read-out: % inhibition
Monoamine Oxidase MAO-A = Monoamine Oxidase MAO-A (Homo sapiens, UniProt P21397); assay: biochemical; conditions: read-out: % inhibition
[6] = target: Protein Tyrosine Kinase, ABL1 (Homo sapiens, UniProt P00519); assay: biochemical; conditions: read-out: % inhibition
[7] = target: Protein Tyrosine Kinase, Src (Homo sapiens, UniProt P12931); assay: biochemical; conditions: read-out: % inhibition
CYP450, 19 = CYP450, 19 (Homo sapiens, UniProt P11511); assay: biochemical; conditions: read-out: % inhibition

Chain of Dopamine D2s (P14416 whole entry): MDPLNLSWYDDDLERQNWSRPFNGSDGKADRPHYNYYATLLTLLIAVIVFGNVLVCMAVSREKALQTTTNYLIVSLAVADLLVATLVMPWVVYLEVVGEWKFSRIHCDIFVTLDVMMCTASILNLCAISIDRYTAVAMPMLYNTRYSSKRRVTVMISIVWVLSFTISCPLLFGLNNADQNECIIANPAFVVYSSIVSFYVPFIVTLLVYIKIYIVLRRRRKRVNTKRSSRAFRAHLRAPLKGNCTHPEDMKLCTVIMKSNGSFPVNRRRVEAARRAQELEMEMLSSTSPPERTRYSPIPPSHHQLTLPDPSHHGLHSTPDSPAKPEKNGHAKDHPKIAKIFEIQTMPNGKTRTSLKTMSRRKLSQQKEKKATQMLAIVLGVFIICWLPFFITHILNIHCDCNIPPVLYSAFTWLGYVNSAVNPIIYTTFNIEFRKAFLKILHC
Chain of Dopamine D3 (P35462 whole entry): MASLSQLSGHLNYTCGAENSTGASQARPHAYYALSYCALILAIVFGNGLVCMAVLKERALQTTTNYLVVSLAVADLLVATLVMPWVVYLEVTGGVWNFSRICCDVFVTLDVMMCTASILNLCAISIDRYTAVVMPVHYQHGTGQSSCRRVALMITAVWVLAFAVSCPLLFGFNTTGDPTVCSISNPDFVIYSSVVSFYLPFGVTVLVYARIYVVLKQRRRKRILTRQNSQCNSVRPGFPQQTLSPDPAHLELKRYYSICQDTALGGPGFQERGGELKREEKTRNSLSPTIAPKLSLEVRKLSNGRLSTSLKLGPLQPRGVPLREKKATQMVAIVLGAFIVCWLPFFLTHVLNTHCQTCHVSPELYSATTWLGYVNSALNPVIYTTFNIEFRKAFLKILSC
Chain of Sigma σ1 (Q99720 whole entry): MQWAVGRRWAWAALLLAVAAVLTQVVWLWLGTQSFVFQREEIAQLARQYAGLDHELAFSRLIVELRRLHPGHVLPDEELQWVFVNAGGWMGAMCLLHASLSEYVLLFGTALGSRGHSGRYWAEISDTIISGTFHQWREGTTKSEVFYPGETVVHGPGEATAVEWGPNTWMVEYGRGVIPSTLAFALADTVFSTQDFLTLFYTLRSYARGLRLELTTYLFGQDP
Chain of Monoamine Oxidase MAO-B (P27338 whole entry): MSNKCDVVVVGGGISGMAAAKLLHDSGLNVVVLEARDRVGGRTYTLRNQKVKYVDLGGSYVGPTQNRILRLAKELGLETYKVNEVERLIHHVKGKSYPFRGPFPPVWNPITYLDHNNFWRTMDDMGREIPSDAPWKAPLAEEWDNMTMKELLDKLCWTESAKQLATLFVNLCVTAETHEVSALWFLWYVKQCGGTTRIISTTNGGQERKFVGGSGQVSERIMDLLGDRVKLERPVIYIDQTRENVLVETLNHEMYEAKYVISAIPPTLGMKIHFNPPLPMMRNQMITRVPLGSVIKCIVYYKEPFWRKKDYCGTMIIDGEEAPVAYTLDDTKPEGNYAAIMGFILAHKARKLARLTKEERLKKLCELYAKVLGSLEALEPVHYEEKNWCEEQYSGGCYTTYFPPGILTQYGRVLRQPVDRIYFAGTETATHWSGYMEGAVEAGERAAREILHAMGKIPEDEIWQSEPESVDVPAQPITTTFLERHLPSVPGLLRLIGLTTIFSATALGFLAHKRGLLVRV
Chain of Dopamine D1 (P21728 whole entry): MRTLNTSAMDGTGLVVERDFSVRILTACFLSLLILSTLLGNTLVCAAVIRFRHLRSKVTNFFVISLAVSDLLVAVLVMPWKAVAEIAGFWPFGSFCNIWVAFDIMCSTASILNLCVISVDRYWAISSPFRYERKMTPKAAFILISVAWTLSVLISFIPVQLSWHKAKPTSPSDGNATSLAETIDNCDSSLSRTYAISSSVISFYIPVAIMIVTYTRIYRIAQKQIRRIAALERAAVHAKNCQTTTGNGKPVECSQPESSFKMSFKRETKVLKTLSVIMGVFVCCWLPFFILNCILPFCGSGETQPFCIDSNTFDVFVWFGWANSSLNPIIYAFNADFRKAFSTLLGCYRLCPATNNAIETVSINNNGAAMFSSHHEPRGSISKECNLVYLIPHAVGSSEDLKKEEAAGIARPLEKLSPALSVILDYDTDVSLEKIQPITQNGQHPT
Chain of Adenosine A1 (P30542 whole entry): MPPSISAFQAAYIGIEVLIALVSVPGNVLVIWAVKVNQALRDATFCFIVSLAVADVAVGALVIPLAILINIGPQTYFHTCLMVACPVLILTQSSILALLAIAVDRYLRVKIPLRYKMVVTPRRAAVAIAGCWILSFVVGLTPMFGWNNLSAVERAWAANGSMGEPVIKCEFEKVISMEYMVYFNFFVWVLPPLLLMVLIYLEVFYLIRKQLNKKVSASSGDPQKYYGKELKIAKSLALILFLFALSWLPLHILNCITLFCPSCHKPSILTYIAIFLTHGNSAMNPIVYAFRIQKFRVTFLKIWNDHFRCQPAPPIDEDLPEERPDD
Chain of Angiotensin AT2 (P50052 whole entry): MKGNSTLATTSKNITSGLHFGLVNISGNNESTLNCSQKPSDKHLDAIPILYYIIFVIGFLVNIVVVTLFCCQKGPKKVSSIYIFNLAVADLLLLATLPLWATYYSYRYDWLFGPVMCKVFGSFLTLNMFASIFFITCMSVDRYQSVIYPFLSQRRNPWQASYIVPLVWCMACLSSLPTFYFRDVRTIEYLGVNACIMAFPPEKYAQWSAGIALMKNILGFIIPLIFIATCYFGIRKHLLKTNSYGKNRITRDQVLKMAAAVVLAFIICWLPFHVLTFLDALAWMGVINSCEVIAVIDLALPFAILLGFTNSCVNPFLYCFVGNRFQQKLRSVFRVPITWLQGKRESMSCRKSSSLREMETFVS
Chain of Muscarinic M3 (P20309 whole entry): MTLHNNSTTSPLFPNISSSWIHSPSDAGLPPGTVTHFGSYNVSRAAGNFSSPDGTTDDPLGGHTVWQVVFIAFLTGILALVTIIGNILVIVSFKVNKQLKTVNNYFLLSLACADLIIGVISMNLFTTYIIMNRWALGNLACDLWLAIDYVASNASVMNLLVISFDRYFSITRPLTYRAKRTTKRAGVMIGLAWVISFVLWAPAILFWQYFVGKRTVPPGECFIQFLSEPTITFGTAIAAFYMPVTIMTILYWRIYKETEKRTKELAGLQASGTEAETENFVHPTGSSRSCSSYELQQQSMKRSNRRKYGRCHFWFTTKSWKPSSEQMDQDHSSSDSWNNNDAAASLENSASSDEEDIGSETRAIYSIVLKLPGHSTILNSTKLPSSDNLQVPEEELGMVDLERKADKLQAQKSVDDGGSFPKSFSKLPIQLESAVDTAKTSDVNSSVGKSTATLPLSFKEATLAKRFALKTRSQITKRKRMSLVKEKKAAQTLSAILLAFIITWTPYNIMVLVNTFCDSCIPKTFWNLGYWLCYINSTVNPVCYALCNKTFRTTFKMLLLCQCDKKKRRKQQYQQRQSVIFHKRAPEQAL
Chain of Estrogen ERα (P03372 whole entry): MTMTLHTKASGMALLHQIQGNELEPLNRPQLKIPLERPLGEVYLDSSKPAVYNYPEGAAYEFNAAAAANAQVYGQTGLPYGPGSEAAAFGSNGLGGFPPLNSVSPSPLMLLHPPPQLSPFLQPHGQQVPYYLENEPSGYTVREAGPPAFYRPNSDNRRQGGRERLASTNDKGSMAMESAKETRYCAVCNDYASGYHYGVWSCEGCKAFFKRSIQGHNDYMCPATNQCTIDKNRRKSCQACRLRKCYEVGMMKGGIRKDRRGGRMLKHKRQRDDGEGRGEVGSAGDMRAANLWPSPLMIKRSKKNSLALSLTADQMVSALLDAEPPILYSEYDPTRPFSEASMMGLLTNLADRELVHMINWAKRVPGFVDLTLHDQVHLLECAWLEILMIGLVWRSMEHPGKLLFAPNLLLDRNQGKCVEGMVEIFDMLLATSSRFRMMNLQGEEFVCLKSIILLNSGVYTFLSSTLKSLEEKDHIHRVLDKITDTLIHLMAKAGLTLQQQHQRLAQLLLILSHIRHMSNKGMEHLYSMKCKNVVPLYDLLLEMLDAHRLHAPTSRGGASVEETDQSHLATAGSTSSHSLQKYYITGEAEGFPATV
Chain of Muscarinic M2 (P08172 whole entry): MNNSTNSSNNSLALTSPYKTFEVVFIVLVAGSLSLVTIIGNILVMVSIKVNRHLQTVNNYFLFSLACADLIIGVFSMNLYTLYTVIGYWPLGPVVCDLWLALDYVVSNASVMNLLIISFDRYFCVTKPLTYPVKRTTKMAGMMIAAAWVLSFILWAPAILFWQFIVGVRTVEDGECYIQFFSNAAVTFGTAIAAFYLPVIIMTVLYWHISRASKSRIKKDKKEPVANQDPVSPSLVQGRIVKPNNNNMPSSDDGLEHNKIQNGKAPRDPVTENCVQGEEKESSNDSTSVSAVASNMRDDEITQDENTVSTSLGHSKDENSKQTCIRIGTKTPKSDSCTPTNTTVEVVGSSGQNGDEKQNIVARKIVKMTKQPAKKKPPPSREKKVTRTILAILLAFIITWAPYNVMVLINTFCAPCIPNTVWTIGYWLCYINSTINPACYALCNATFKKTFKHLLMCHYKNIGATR
Chain of Adrenergic α1B (P15823 whole entry): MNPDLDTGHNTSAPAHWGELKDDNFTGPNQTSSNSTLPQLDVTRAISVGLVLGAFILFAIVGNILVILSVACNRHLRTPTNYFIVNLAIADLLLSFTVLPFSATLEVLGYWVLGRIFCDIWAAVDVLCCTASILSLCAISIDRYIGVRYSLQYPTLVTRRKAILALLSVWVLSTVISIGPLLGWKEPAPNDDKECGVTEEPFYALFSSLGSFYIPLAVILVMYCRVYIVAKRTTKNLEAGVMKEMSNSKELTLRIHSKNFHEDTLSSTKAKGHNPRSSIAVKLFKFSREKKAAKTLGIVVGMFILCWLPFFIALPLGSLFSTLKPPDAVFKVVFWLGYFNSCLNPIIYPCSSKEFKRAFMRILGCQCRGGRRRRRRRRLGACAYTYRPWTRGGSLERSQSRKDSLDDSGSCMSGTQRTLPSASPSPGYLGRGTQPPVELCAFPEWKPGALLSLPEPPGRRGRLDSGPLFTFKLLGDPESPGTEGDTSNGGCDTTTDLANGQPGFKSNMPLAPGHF

C[C@]12CCC(=NOCC(=O)O)C[C@@H]1[C@H](O)C[C@@H]1[C@@H]2CC[C@]2(C)C(=O)CC[C@@H]12 (mixture of isomers) [PST3093, (E,Z)-[(6-beta-hydroxy-17-oxoandrostan-3-ylidene)amino]oxyacetic acid]
inhibition at 10 µM [1]: 3%
inhibition at 10 µM (Progesterone PR-B): -15%
inhibition at 10 µM (Potassium Channel hERG): 10%
inhibition at 10 µM (Muscarinic M3): 4%
inhibition at 10 µM (Adrenergic α2A): -5%
inhibition at 10 µM (Adrenergic α1A): 2%
inhibition at 10 µM (Histamine H1): -3%
inhibition at 10 µM (Dopamine D3): 1%
inhibition at 10 µM (Adrenergic α1B): 0%
inhibition at 10 µM (Muscarinic M2): -7%
inhibition at 10 µM (Angiotensin AT2): 7%
inhibition at 10 µM (Sigma σ1): 7%
inhibition at 10 µM (Adenosine A1): -2%
inhibition at 10 µM (Adenosine A2A): -6%
inhibition at 10 µM [2]: 1%
inhibition at 10 µM (Adrenergic β2): 7%
inhibition at 10 µM (Dopamine D2s): 26%
inhibition at 10 µM (Opiate μ (OP3, MOP)): -5%
inhibition at 10 µM (Sigma σ2): 12%
inhibition at 10 µM (Adrenergic β1): -4%
inhibition at 10 µM [3]: 4%
inhibition at 10 µM (Dopamine D1): 3%
inhibition at 10 µM (Angiotensin AT1): -1%
inhibition at 10 µM (Muscarinic M5): 5%
inhibition at 10 µM (Estrogen ERβ): 7%
inhibition at 10 µM (Estrogen ERα): -6%
% reduction of KdCa at 100 nM [4]: ~ 20%
inhibition at 10 µM (Aldosterone): 5%
IC50 [5]: > 100 µM
inhibition at 10 µM (Glucocorticoid): 8%
inhibition at 10 µM (Androgen (Testosterone)): 3%
inhibition at 10 µM (Insulin): 6%
inhibition at 10 µM (Monoamine Oxidase MAO-B): -3%
inhibition at 10 µM (HMG-CoA Reductase): -2%
inhibition at 10 µM (Peptidase, Renin): 6%
inhibition at 10 µM (Monoamine Oxidase MAO-A): 2%
inhibition at 10 µM [6]: 3%
inhibition at 10 µM [7]: -1%
inhibition at 10 µM (CYP450, 19): 12%
